{"source": "patent USRE36520E", "about": "“HMG-CoA reductase inhibitors” (Merck & Co., Inc., priority 1998, dated 2000)", "data": [{"tested_on": "HMG-CoA reductase", "sequence (P51639 425-887 limits assumed)": "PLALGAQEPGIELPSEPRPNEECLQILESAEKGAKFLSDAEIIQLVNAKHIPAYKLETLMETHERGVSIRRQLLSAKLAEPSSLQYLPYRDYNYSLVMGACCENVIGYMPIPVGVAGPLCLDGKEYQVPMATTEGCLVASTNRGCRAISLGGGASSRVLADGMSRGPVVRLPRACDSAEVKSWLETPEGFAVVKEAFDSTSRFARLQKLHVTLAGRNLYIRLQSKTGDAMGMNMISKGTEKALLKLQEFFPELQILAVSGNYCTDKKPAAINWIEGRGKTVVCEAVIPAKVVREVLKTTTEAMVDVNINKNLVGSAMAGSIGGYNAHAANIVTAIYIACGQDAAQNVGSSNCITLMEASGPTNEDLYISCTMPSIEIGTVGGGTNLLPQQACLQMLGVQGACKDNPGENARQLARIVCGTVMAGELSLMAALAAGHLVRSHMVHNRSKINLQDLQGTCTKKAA", "experiment": "HMG-CoA reductase inhibition assay (in vitro protocol of J. Med. Chem., 28, 347-358)", "format": "biochemical", "conditions": "relative to compactin arbitrarily assigned a value of 100; IC50 compared with that of compactin determined simultaneously; tested as sodium salt of dihydroxy acid form; enzyme solubilized from rat liver microsomes", "protocol": "The intrinsic HMG-CoA reductase inhibition activity of the claimed compounds is measured in the in vitro protocol published in J. Med. Chem., 28, p. 347-358 (1985) and described below: Male Holtzman Sprague-Dawley rats (225-250 g) were kept on reversed lighting and fed Purina rat chow containing 3% cholestyramine for 7 days preceding their sacrifice by CO2 asphyxiation. Livers were removed 6 hours into the dark cycle and used immediately to prepare microsomes. HMG-CoA reductase was solubilized from the freshly prepared microsomes by the method of Heller and Shrewsbury [J. Biol. Chem., 1976, 251, 3815] and purified through the second ammonium sulfate precipitation step as described by Kleinsek et al. [Proc. Natl. Acad. Sci. USA, 1977, 74, 1431]. […] The enzyme preparation was stored at -80° C. The assay is essentially the procedure of Shefer et al. [J. Lipid Res., 1972, 13, 402]. The complete assay medium contained the following in a total volume of 0.8 ml: phosphate buffer, pH 7.2, 100 mM; MgCl2, 3 mM; NADP, 3 mM; glucose-6-phosphate, 10 mM; glucose-6-phosphate dehydro-genase, 3 enzyme units; reduced glutathione, 50 mM; HMG-CoA (qlutaryl-3-^14 C, New England Nuclear), 0.2 mM (0.1 μCi); and partially purified enzyme stock solution, 100 μL. […] After a 40-minute incubation at 37° C. with shaking and exposure to air, the reaction was stopped by the addition of 0.4 mL of 8N HCl. After an additional 30-minute incubation period at 37° C. to ensure the complete lactonization of mevalonic acid to mevalonolactone, 0.2 ml of the mixture was added to an 0.5×5.0 cm column containing 100-200 mesh Bio-Rex 5, chloride form (Bio-Rad), wetted with distilled water, as described by Alberts et al. [Proc. Natl. Acad. Sci. U.S.A., 1980, 77, 3967]. The unreacted [^14 C]HMG-CoA was absorbed on the resin and the [^14 C]mevalonolactone was eluted with distilled water (2×1 ml) directly into 7-ml scintillation vials. Five milliliters of Aquasol-2 (New England Nuclear) was added to each vial, and radioactivity was measured in a Packard Tri Carb Prias scintillation counter. IC50 values were determined by plotting percentage inhibition against test compound concentration and fitting a straight line to the resulting data by using the least-squares method.", "values": [{"compound": "6(R)-[2-[8(S)-(2,2-dimethylbutyryloxy)-2(S)-methyl-6(R)-(1-hydroxyethyl)-1,2,3,4,4a(S),5,6,7,8,8a(S)-decahydronaphthyl-1(S)]ethyl]-4(R)-hydroxy-3,4,5,6-tetrahydro-2H-pyran-2-one [-- -- -- R CHOHCH3 (ISOMER A) 1,1-dimethylpropyl]", "Relative Potency": 111}, {"compound": "6(R)-[2-[8(S)-(2-methylbutyryloxy)-2(S)-methyl-6(R)-(hydroxymethyl)-1,2,6,7,8,8a(R)-hexahydronaphthyl-1(S)]ethyl]-4(R)-hydroxy-3,4,5,6-tetrahydro-2H- pyran-2-one [db -- db R CH2 OH sec-butyl]", "Relative Potency": 47}, {"compound": "6(R)-[2-[8(S)-(2,2-Dimethylbutyryloxy)-2(S)-methyl-6(S)-(α-hydroxybenzyl)-1,2,3,4,4a(S),5,6,7,8,8a-(S)-decahydronaphthyl-1(S)]ethyl]-4(R)-hydroxy-3,4,5,6-tetrahydro-2H-pyran-2-one [-- -- -- S CHOHPH 1,1-dimethylpropyl]", "Relative Potency": 220}, {"compound": "6(R)-[2-[8(S)-(2,2-Dimethylbutyryloxy)-6(R)-carboxy-2(S)-methyl-1,2,6,7,8,8a(R)-hexahydronaphthyl-1(S)]ethyl]-4(R)-hydroxy-3,4,5,6-tetrahydro-2H-pyran-2-one [db -- db R CO2 H 1,1-dimethylpropyl]", "Relative Potency": 94}, {"compound": "6(R)-[2-[8(S)-(2,2-dimethylbutyryloxy)-2(S)-methyl-6(R)-(1-hydroxyethyl)-1,2,3,4,4a(S),5,6,7,8,8a(S)-decahydronaphthyl-1(S)]ethyl]-4(R)-hydroxy-3,4,5,6-tetrahydro-2H-pyran-2-one [-- -- -- R CHOHCH3 (ISOMER B) 1,1-dimethylpropyl]", "Relative Potency": 104}, {"compound": "6(R)-[2-[8(S)-(2,2-dimethylbutyryloxy)-2(S)-methyl-6(S)-(1-hydroxyethyl)-1,2,3,4,4a,(S),5,6,7,8,8a(R)-decahydronaphthyl-1(S)]ethyl]-4(R)-hydroxy-3,4,5,6-tetrahydro-2H-pyran-2-one [-- -- -- S CHOHCH3 (ISOMER B) 1,1-dimethylpropyl]", "Relative Potency": 113}, {"compound": "6(R)-[2-[8(S)-(2,2-Dimethylbutyryloxy)-6(S)-carboxy-2(S)-methyl-1,2,6,7,8,8a(R)-hexahydronaphthyl-1(S)]ethyl]-4(R)-hydroxy-3,4,5,6-tetrahydro-2H-pyran-2-one [db -- db S CO2 H 1,1-dimethylpropyl]", "Relative Potency": 99}, {"compound": "6(R)-[2-[8(S)-(2,2-Dimethylbutyryloxy)-2(S)-methyl-6(S)-ethoxycarbonyl-1,2,3,4,4a(S),5,6,7,8,8a(S)-decahydronaphthyl-1(S)]ethyl]-4(R)-hydroxy-3,4,5,6-tetrahydro-2H-pyran-2-one [-- -- -- S CO2 Et 1,1-dimethylpropyl]", "Relative Potency": 125}, {"compound": "6(R)-[2-[8(S)-(2,2-Dimethylbutyryloxy)-6(R)-(2,2-dimethylbutyryloxymethyl)-2(S)-methyl-1,2,3,4,6,7,8,8a(R)-octahydronaphthyl-1(S)]-ethyl]-4(R)-hydroxy-3,4,5,6-tetrahydro-2H-pyran-2-one", "Relative Potency": 33}, {"compound": "6(R)-[2-[8(S)-(2,2-Dimethylbutyryloxy)-2(S)-methyl-6(S)-(N,N-dimethyl)aminocarbonyl-1,2,3,4,4a(S),5,6,7,8,8a(S)-decahydronaphthyl-1(S)]-ethyl]-4(R)-hydroxy-3,4,5,6-tetrahydro-2H-pyran-2-one [-- -- -- S CONMe2 1,1-dimethylpropyl]", "Relative Potency": 75}, {"compound": "6(R)-[2-[8(S)-(2-methylbutyryloxy)-6(S)-carboxy-2(S)-methyl-1,2,6,7,8,8a(R)-hexahydronaphthyl-1(S)]ethyl]-4(R)-hydroxy-3,4,5,6-tetrahydro-2H-pyran-2- one [db -- db S CO2 H sec-butyl]", "Relative Potency": 26}, {"compound": "6(R)-[2-[8(S)-(2,2-Dimethylbutyryloxy)-6(R)-hydroxymethyl-2(S)methyl-1,2,3,4,6,7,8,8a(R)-octahydronaphthyl-1(S)]ethyl]-4(R)-hydroxy-3,4,5,6-tetrahydro-2H-pyran-2-one [db -- -- R CH2 OH 1,1-dimethylpropyl]", "Relative Potency": 213}, {"compound": "6(R)-[2-[8(S)-(2,2-Dimethylbutyryloxy)-2(S)-methyl-6(S)-carboxy-1,2,3,4,4a(S),5,6,7,8,8a(S)-decahydronaphthyl-1(S)]-ethyl]-4(R)-hydroxy-3,4,5,6-tetrahydro-2H-pyran-2-one [-- -- -- S CO2 H 1,1-dimethylpropyl]", "Relative Potency": 79}, {"compound": "6(R)-[2-[8(S)-(2,2-dimethylbutyryloxy)-2(S)-methyl-6(S)-hydroxymethyl-1,2,3,4,4a(S),5,6,7,8,8a(S)-decahydronaphthyl-1(S)]ethyl]-4(R)-hydroxy-3,4,5,6- tetrahydro-2H-pyran-2-one [-- -- -- S CH2 OH 1,1-dimethylpropyl]", "Relative Potency": 86}, {"compound": "6(R)-[2-[8(S)-(2,2-Dimethylbutyryloxy)-6(S)-hydroxymethyl-2(S)-methyl-1,2,6,7,8,8a(R)-hexahydronaphthyl-1(S)]ethyl]-4(R)-hydroxy-3,4,5,6-tetrahydro-2H-pyran-2-one [db -- db S CH2 OH 1,1-dimethylpropyl]", "Relative Potency": 189}, {"compound": "6(R)-[2-[8(S)-(2,2-dimethylbutyryloxy)-2(S)-methyl-6(S)-(1-hydroxyethyl)-1,2,3,4,4a,(S),5,6,7,8,8a(R)-decahydronaphthyl-1(S)]ethyl]-4(R)-hydroxy-3,4,5,6-tetrahydro-2H-pyran-2-one [-- -- -- S CHOHCH3 (ISOMER A) 1,1-dimethylpropyl]", "Relative Potency": 131}, {"compound": "6(R)-[2-[8(S)-(2,2-dimethylbutyryloxy)-6(S)-(N,N-diethyl)aminocarbonyl-2(S)-methyl-1,2,6,7,8,8a(R)-hexahydronaphthyl-1(S)]ethyl]-4(R)-hydroxy-3,4,5,6-tetrahydro-2H-pyran-2-one [db -- db S CONEt2 1,1-dimethylpropyl]", "Relative Potency": 65}, {"compound": "6(R)-[2-[8(S)-(2,2-Dimethylbutyryloxy)-2(S)-methyl-6(S)-aminocarbonyl-1,2,3,4,4a(S),5,6,7,8,8a(S)-decahydronaphthyl-1(S)]ethyl]-4(R)-hydroxy-3,4,5,6- tetrahydro-2H-pyran-2-one [-- -- -- S CONH2 1,1-dimethylpropyl]", "Relative Potency": 107}, {"compound": "6(R)-[2-[8(S)-(2,2-Dimethylbutyryloxy)-2(S)-methyl-6(S)-isopropoxycarbonyl-1,2,3,4,4a(S),5,6,7,8,8a(S)-decahydronaphthyl-1(S)]ethyl]-4(R)-hydroxy-3,4,5,6-tetrahydro-2H-pyran-2-one [-- -- -- S CO2-i-Pr 1,1-dimethylpropyl]", "Relative Potency": 80}, {"compound": "6(R)-[2-[8(S)-(Cyclohexylcarbonyloxy)-6(S)-hydroxymethyl-2(S)-methyl-1,2,3,4,4a(S),5,6,7,8,8a(S)-decahydronaphthyl-1(S)]ethyl]-4(R)-hydroxy-3,4,5,6-tetrahydro-2H-pyran-2-one [-- -- -- S CH2 OH cyclohexyl]", "Relative Potency": 33}, {"compound": "6(R)-[2-[8(S)-(2,2-dimethylbutyryloxy)-2(S)-methyl-6(S)-(2,2-dimethylbutyryloxymethyl)-1,2,3,4,4a(S),5,6,7,8,8a(S)-decahydronaphthyl-1(S)]ethyl]-4(R)-hydroxy-3,4,5,6-tetrahydro-2H-pyran-2-one", "Relative Potency": 100}, {"compound": "6(R)-[2-[8(S)-(2,2-Dimethylbutyryloxy)-6(S)-(N,N-dimethyl)aminocarbonyl-2(S)methyl-1,2,6,7,8,8a(R)-hexahydronaphthyl-1(S)]ethyl]-4(R)-hydroxy-3,4,5,6-tetrahydro-2H-pyran-2-one [db -- db S CONMe2 1,1-dimethylpropyl]", "Relative Potency": 82}]}, {"tested_on": "not listed separately", "experiment": "Stability of the free dihydroxy acid on standing", "format": "physicochemical", "conditions": "dihydroxy acid can be maintained by increasing the pH above 7.0", "protocol": "The sodium salt of the compound II from Example 64 is dissolved in 2 ml of ethanol-water (1:1; v:v) and added to 10 ml of 1N hydrochloric acid from which the dihydroxy acid is extracted with ethyl acetate. The organic extract is washed once with water, dried (Na2 SO4), and evaporated in vacuo with a bath temperature not exceeding 30° C. […] The dihydroxy acid can be maintained by increasing the pH above 7.0.", "values": [{"compound": "CCC(C)(C)C(=O)O[C@H]1C[C@@H](CO)C[C@@H]2CC[C@H](C)[C@H](CC[C@@H](O)C[C@@H](O)CC(=O)O)[C@H]21", "note": "[Example 70]", "reversion of dihydroxy acid to parent lactone": "slowly reverts to the corresponding,parent lactone on standing"}]}]}
